Organism: Rattus norvegicus
Assay: DrugMatrix - Regimen: Daily Repeat
Assay type: toxicity, organism-based, Sprague-Dawley
Set-up: regimen Daily Repeat, gender Male, age 6-8 weeks
Details: in vivo, po, route oral GAVAGE, vehicle 100 % SALINE; for ABSOLUTE BASOPHIL / ABSOLUTE EOSINOPHIL / ABSOLUTE LYMPHOCYTE / ABSOLUTE MONOCYTE / ABSOLUTE SEGMENTED NEUTROPHIL / BASOPHIL / EOSINOPHIL / ERYTHROCYTE COUNT / HEMATOCRIT / HEMOGLOBIN / LEUKOCYTE COUNT / LYMPHOCYTE / MEAN CORPUSCULAR HEMOGLOBIN / MEAN CORPUSCULAR HEMOGLOBIN CONCENTRATION / MEAN CORPUSCULAR VOLUME / MONOCYTE / NEUTROPHIL / NUCLEATED RED BLOOD CELLS / PLATELET COUNT: tissue Blood; for ALANINE AMINOTRANSFERASE / ALBUMIN / ALKALINE PHOSPHATASE / ASPARTATE AMINOTRANSFERASE / BLOOD UREA NITROGEN / CARBON DIOXIDE / CHLORIDE / CHOLESTEROL / CREATINE PHOSPHOKINASE / CREATININE / GLUCOSE / LACTATE DEHYDROGENASE / LIPASE / PHOSPHORUS / POTASSIUM / SODIUM / TOTAL BILIRUBIN / TOTAL PROTEIN / URIC ACID: tissue Plasma
[1] = 0 mg/kg, 72 h, dose level Control, time 3 day
[2] = 0 mg/kg, 120 h, dose level Control, time 5 day
[3] = 59 mg/kg, 72 h, dose level Low, time 3 day

NC(=O)NO [HYDROXYUREA]
ABSOLUTE BASOPHIL [1]: 0 CELLS/uL
ABSOLUTE EOSINOPHIL [1]: 16.17 CELLS/uL
ABSOLUTE LYMPHOCYTE [1]: 9117 CELLS/uL
ABSOLUTE MONOCYTE [1]: 16.17 CELLS/uL
ABSOLUTE SEGMENTED NEUTROPHIL [1]: 484 CELLS/uL
BASOPHIL [1]: 0%
EOSINOPHIL [1]: 0.17%
ERYTHROCYTE COUNT [1]: 5.19 x10E6/uL
HEMATOCRIT [1]: 34.9%
HEMOGLOBIN [1]: 13.35 G/DL
LEUKOCYTE COUNT [1]: 9.63 x10E3/uL
LYMPHOCYTE [1]: 94.5%
MEAN CORPUSCULAR HEMOGLOBIN [1]: 25.72 pg
MEAN CORPUSCULAR HEMOGLOBIN CONCENTRATION [1]: 38.25 G/DL
MEAN CORPUSCULAR VOLUME [1]: 67.22 fL
MONOCYTE [1]: 0.17%
NEUTROPHIL [1]: 5.17%
NUCLEATED RED BLOOD CELLS [1]: 0.33 /100WBC
PLATELET COUNT [1]: 1142 x10E3/uL
ALANINE AMINOTRANSFERASE [1]: 47.33 u/L
ALBUMIN [1]: 4.13 G/DL
ALKALINE PHOSPHATASE [1]: 320.33 u/L
ASPARTATE AMINOTRANSFERASE [1]: 76.17 u/L
BLOOD UREA NITROGEN [1]: 12.67 mg/dL
CARBON DIOXIDE [1]: 30.83 mmol/L
CHLORIDE [1]: 99 MEQ/L
CHOLESTEROL [1]: 74.17 mg/dL
CREATINE PHOSPHOKINASE [1]: 271 u/L
CREATININE [1]: 0.15 mg/dL
GLUCOSE [1]: 150.5 mg/dL
LACTATE DEHYDROGENASE [1]: 92.67 u/L
LIPASE [1]: 10 u/L
PHOSPHORUS [1]: 10.67 mg/dL
POTASSIUM [1]: 5.78 MEQ/L
SODIUM [1]: 142.83 MEQ/L
TOTAL BILIRUBIN [1]: 0.1 mg/dL
TOTAL PROTEIN [1]: 6.18 G/DL
URIC ACID [1]: 0.65 mg/dL
ABSOLUTE BASOPHIL [2]: 0 CELLS/uL
ABSOLUTE EOSINOPHIL [2]: 0 CELLS/uL
ABSOLUTE LYMPHOCYTE [2]: 8222.33 CELLS/uL
ABSOLUTE MONOCYTE [2]: 89.67 CELLS/uL
ABSOLUTE SEGMENTED NEUTROPHIL [2]: 471.33 CELLS/uL
BASOPHIL [2]: 0%
EOSINOPHIL [2]: 0%
ERYTHROCYTE COUNT [2]: 5.13 x10E6/uL
HEMATOCRIT [2]: 33.47%
HEMOGLOBIN [2]: 12.97 G/DL
LEUKOCYTE COUNT [2]: 8.78 x10E3/uL
LYMPHOCYTE [2]: 93%
MEAN CORPUSCULAR HEMOGLOBIN [2]: 25.3 pg
MEAN CORPUSCULAR HEMOGLOBIN CONCENTRATION [2]: 38.77 G/DL
MEAN CORPUSCULAR VOLUME [2]: 65.23 fL
MONOCYTE [2]: 1%
NEUTROPHIL [2]: 6%
NUCLEATED RED BLOOD CELLS [2]: 0 /100WBC
PLATELET COUNT [2]: 1298.5 x10E3/uL
ALANINE AMINOTRANSFERASE [2]: 56 u/L
ALBUMIN [2]: 3.98 G/DL
ALKALINE PHOSPHATASE [2]: 321.67 u/L
ASPARTATE AMINOTRANSFERASE [2]: 99.17 u/L
BLOOD UREA NITROGEN [2]: 13.8 mg/dL
CARBON DIOXIDE [2]: 29 mmol/L
CHLORIDE [2]: 98.67 MEQ/L
CHOLESTEROL [2]: 59.67 mg/dL
CREATINE PHOSPHOKINASE [2]: 363 u/L
CREATININE [2]: 0.24 mg/dL
GLUCOSE [2]: 167.83 mg/dL
LACTATE DEHYDROGENASE [2]: 120.83 u/L
LIPASE [2]: 22.5 u/L
PHOSPHORUS [2]: 11.6 mg/dL
POTASSIUM [2]: 5.62 MEQ/L
SODIUM [2]: 143 MEQ/L
TOTAL BILIRUBIN [2]: 0.17 mg/dL
TOTAL PROTEIN [2]: 5.95 G/DL
URIC ACID [2]: 0.87 mg/dL
ABSOLUTE BASOPHIL [3]: 0 CELLS/uL
ABSOLUTE EOSINOPHIL [3]: 15 CELLS/uL
ABSOLUTE LYMPHOCYTE [3]: 4978 CELLS/uL
ABSOLUTE MONOCYTE [3]: 44 CELLS/uL
ABSOLUTE SEGMENTED NEUTROPHIL [3]: 663 CELLS/uL
BASOPHIL [3]: 0%
EOSINOPHIL [3]: 0.33%
ERYTHROCYTE COUNT [3]: 5.08 x10E6/uL
HEMATOCRIT [3]: 33.63%
HEMOGLOBIN [3]: 12.83 G/DL
LEUKOCYTE COUNT [3]: 5.7 x10E3/uL
LYMPHOCYTE [3]: 87.67%
MEAN CORPUSCULAR HEMOGLOBIN [3]: 25.3 pg
MEAN CORPUSCULAR HEMOGLOBIN CONCENTRATION [3]: 38.17 G/DL
MEAN CORPUSCULAR VOLUME [3]: 66.27 fL
MONOCYTE [3]: 0.67%
NEUTROPHIL [3]: 11.33%
NUCLEATED RED BLOOD CELLS [3]: 0 /100WBC
PLATELET COUNT [3]: 1118 x10E3/uL
ALANINE AMINOTRANSFERASE [3]: 47.33 u/L
ALBUMIN [3]: 4.17 G/DL
ALKALINE PHOSPHATASE [3]: 328 u/L
ASPARTATE AMINOTRANSFERASE [3]: 73.67 u/L
BLOOD UREA NITROGEN [3]: 11.33 mg/dL
CARBON DIOXIDE [3]: 30 mmol/L
CHLORIDE [3]: 99 MEQ/L
CHOLESTEROL [3]: 75.33 mg/dL
CREATINE PHOSPHOKINASE [3]: 258 u/L
CREATININE [3]: 0.2 mg/dL
GLUCOSE [3]: 152 mg/dL
LACTATE DEHYDROGENASE [3]: 90 u/L
LIPASE [3]: 10 u/L
PHOSPHORUS [3]: 10.83 mg/dL
POTASSIUM [3]: 5.95 MEQ/L
SODIUM [3]: 142.63 MEQ/L
TOTAL BILIRUBIN [3]: 0.1 mg/dL
TOTAL PROTEIN [3]: 6.07 G/DL
URIC ACID [3]: 0.9 mg/dL

— ChEMBL document CHEMBL3885881, “DrugMatrix”
